In US20250333376A1, “CRYSTAL FORMS OF BMX AND PREPARATION THEREOF” (Novelwise Pharmaceutical Corporation, priority 2024, published 2025):
≈ marks a conversion by molar mass, not a printed value. Entries after “also recorded” stand apart in the source; their conditions may differ. Like-named read-outs stand apart in the source and are kept apart here. Blank lines part the entries; values can stand above or below the compound they belong to.

Columns and labels:
Format in all cases: physicochemical
[1] = Solubility of Crystal Form A in process solvents and aqueous buffer systems; conditions: for solubility at 24 h: thermodynamic from solid
Experimental: The solubility of this form was tested in the process solvents (Ethyl acetate and hexane) and in aqueous buffer systems. 100 mg of Crystal Form A of Compound BMX was weighed into 4 mL vials with 2 mL of the specified solvent/aqueous buffer system being added. These solutions were shaken at room temperature for 24 hours. The pH was monitored in time and remained in the correct range. Samples were filtered and diluted (5× in ACN/MeOH 1/1) and measured using H PLC. The concentration of the samples is determined using a calibration line.

[2] = Hygroscopicity determination by DVS
Experimental: The hygroscopicity of the Crystal Form A of Compound BMX was determined using Surface Measurement Systems Ltd. DVS resolution equipment. The sample was loaded into balance pan, typically 10-30 mg, and equilibrated at 0% relative humidity (RH). When the material has dried, the RH is increased with 10% per step for 1 hour per increment, ending at 95% RH. After completion of the sorption cycle, the sample was dried using the same method. […] The software used for data collection is DVS Control Software for 21 CFR Part 11 v1.0.3.0. Data analysis is performed using DVS Standard Analysis Suite v7.2.0.9 (Standard).

[3] = Photo stress stability, amorphous form versus Crystal Form A; conditions: for Degradation: 48 hours of exposure to photo-stress conditions (cool white fluorescent lamp and UV fluorescent lamp 320-400 nm)
From the text: The amorphous Form and the Crystal Form A of Compound BMX samples were exposed at a cool white fluorescent lamp that has an output similar to that specified by ISO 10977 and UV fluorescent lamp with a spectral distribution from 320 nm to 400 nm for evaluating the photo stress stability.

[4] = Competitive slurry experiments to determine the most stable polymorphic form; conditions: competitive slurry in 2-propanol, XRPD
Experimental: No material of Crystal Form C, D, or E was available since these could not be reproduced. The competitive slurry was performed using Crystal Forms B, […], F and poorly crystalline material, with 10 mg of each form being added in two 1 mL vials.
The competitive slurry experiment in 2-methyl tetrahydrofuran gave a clear solution and the experiment in 2-propanol gave a white slurry.

[5] = Stability test of Form B slurried in water
[6] = Stability of polymorphic forms stored at 40° C./75% RH for 4 days
Experimental: Both Crystal Form A and Crystal Form D were found in different solvent combinations using different crystallization techniques. […] Crystal Form C was only observed once, being found in a slurry experiment at 50° C. in DMSO/Ethanol (60/40-%). […] All plates were stored at 40° C./75% RH for 4 days in order to determine the stability of the polymorphic forms.

[7] = Solubility of amorphous material of Compound BMX by the shake flask method; conditions: for solubility at 24 h / solubility at 15 min: organic solvent or mixture, thermodynamic from solid, shake flask
Experimental: The solubility of amorphous material of Compound BMX was determined by the shake flask method. The amorphous material was obtained by dissolving 500 mg of the Crystal From A of Compound BMX in 10 mL dichloromethane, this solution was evaporated to dryness in vacuum conditions (0 mbar, RT).
The solvents for the solubility determination were selected based on the Principal Component Analysis (PCA) of properties, which means that some pharmaceutically unattractive solvents were included to create a better understanding of the parameter space. The Principal Component Analysis focusses on polarity, polarizability and hydrogen bonding.
Subsequently, the samples were filtered and diluted for LC analysis and the concentration is determined using a calibration line.

[8] = solvent Methyl-tert-butyl ether

Solubility ([1]; Ethyl acetate, room temperature, 24 hours): 20780 µg/mL (≈ 52.3 mM)
solubility at 24 h ([1]; FaSSIF, pH 6.5, fassif, pH 6.5, room temperature, 24 hours): 10 µg/mL (≈ 0.0252 mM)
solubility at 24 h ([1]; FeSSIF, pH 5.8, fessif, pH 5.8, room temperature, 24 hours): 180 µg/mL (≈ 0.453 mM)
Solubility (in words) ([1]; Hexane, water, FaSSGF, FASSIF and phosphate buffer pH 7.4): insoluble
solubility at 24 h ([1]; ethyl acetate, organic solvent or mixture, room temperature, 24 hours): 20800 µg/mL (≈ 52.3 mM)
Mass uptake (DVS) ([2]; 0% to 95% RH, 10% per step, 1 hour per increment): 0.035 wt %
Stability under humid conditions (XRPD, DSC/TGA, microscopy pre and post DVS) ([2]; after DVS up to 95% RH): stable under these humid conditions
Degradation [3]: 10%
Most stable polymorphic form [4]: most stable form
Most stable polymorphic form ([4]; listed as Cystal Form A): thermodynamically most stable form
Structure (SMILES): COc1ccc(COc2c(/C=C/C(=O)NO)ccc(OC)c2CC=C(C)C)cc1 [Crystal Form A]
Changes in polymorphic form after solubility test (XRPD) ([1]; all solvents/buffers of Table 6, 24 hours at room temperature): No changes in polymorphic form were observed
Hygroscopicity (in words) ([2]; DVS): non-hygroscopic; also recorded: not hygroscopic
Stability under stress conditions compared with the amorphous form ([3]; photo-stress, 48 hours): significantly more stable than the amorphous form

Changes in XRPD on slurrying in water ([5]; water, room temperature, 4 hours, 24 hours, 4 days and 7 days): No changes were observed in the XRPD
Structure (SMILES): COc1ccc(COc2c(/C=C/C(=O)NO)ccc(OC)c2CC=C(C)C)cc1 [Crystal Form B]
Conversion on seeding with Crystal Form A ([5]; seeds of Crystal Form A, slurrying at 50° C.): could not be converted into Crystal Form A
Stability in water (in words) ([5]; slurry in water): very stable in water; also recorded: remained stable in water

Structure (SMILES): COc1ccc(COc2c(/C=C/C(=O)NO)ccc(OC)c2CC=C(C)C)cc1 [Crystal Form C]
Stability of the polymorphic form [6]: unstable and converted into Crystal Form D soon
Stability of the polymorphic form ([6]; listed as Cystal Form C): not a stable form and converted into polymorphic Crystal Form D

solubility at 24 h ([7]; solvent 2-Ethly-1-butanol): 8800 µg/mL (≈ 22.1 mM)
solubility at 15 min ([7]; solvent Acetonitrile): 10000 to 33000 µg/mL (≈ 25.2 to 83 mM)
solubility at 24 h ([7]; solvent Anisole): 9700 µg/mL (≈ 24.4 mM)
solubility at 15 min ([7]; solvent Dimethyl sulfoxide): 31000 to 94000 µg/mL (≈ 78 to 236 mM)
solubility at 15 min ([7]; solvent Ethyl butyl ketone): 10000 to 33000 µg/mL (≈ 25.2 to 83 mM)
solubility at 24 h ([7]; solvent Ethyl sulfoxide): 6900 µg/mL (≈ 17.4 mM)
solubility at 15 min ([7]; solvent Methanol): 31000 to 94000 µg/mL (≈ 78 to 236 mM)
solubility at 24 h [7, 8]: 3300 µg/mL (≈ 8.3 mM)
USP classification ([7]; solvent 2-Ethly-1-butanol): Slightly soluble
USP classification ([7]; solvent Acetonitrile): Sparingly soluble
USP classification ([7]; solvent Anisole): Slightly soluble
USP classification ([7]; solvent Dimethyl sulfoxide): Soluble
USP classification ([7]; solvent Ethyl butyl ketone): Sparingly soluble
USP classification ([7]; solvent Ethyl sulfoxide): Slightly soluble
USP classification ([7]; solvent Methanol): Soluble
USP classification [7, 8]: Slightly soluble
USP classification ([7]; solvent Water): Practically insoluble
USP classification ([7]; solvent n-Heptane): Practically insoluble
Degradation ([3]; listed as amorphous form): 20%
Structure (SMILES): COc1ccc(COc2c(/C=C/C(=O)NO)ccc(OC)c2CC=C(C)C)cc1 [amorphous material of Compound BMX]
Stability of the polymorphic form ([6]; listed as amorphous solid): converted into a new polymorphic form: Crystal Form E
